Experimental data from ChEMBL document CHEMBL5653631, “A Potent and Selective ULK1 Inhibitor Suppresses Autophagy and Sensitizes Cancer Cells to Nutrient Stress” (iScience, 2018).
Blank lines part the entries; values can stand above or below the compound they belong to.

Columns and labels:
[1] = biological target: T1, MAPK/MAK/MRK overlapping kinase (Homo sapiens) (UniProt Q9UQ07); test: Inhibition of human recombinant MOK at 500 nM in presence of ATP by radiometric assay relative to control
T1 sequence (whole entry): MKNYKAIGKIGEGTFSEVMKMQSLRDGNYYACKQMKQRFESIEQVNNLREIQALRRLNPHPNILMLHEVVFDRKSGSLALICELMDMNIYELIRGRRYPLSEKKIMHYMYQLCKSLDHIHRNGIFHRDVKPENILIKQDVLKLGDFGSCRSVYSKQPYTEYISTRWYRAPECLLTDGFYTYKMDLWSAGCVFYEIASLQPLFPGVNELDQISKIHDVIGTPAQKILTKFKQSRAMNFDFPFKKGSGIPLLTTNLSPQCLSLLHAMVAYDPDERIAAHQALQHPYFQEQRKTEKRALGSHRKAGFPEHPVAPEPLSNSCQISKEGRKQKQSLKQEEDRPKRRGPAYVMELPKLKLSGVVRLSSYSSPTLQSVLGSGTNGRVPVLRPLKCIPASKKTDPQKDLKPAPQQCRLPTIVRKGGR

[2] = biological target: Serine/threonine-protein kinase 4 (Homo sapiens) (UniProt Q13043); test: Inhibition of human recombinant MST1 at 500 nM related to control ULK1
Serine/threonine-protein kinase 4 (Homo sapiens), sequence (Q13043 whole entry, looked up): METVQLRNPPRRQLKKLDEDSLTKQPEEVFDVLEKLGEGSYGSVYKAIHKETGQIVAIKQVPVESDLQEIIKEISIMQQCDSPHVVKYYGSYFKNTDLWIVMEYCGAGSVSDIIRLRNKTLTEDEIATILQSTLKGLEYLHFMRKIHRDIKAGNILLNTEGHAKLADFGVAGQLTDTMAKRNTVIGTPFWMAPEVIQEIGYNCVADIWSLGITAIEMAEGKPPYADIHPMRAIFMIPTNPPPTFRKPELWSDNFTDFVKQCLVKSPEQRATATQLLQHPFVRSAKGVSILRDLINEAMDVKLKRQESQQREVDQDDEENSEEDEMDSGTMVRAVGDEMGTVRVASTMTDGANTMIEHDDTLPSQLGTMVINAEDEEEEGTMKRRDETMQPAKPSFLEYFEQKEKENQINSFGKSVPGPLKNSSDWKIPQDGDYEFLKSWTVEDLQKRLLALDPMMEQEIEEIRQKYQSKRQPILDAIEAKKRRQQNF

[3] = biological target: Ephrin type-A receptor 2 (Homo sapiens) (UniProt P29317); test: Inhibition of human recombinant EphA2 at 40 nM in presence of ATP by radiometric assay relative to control
Ephrin type-A receptor 2 (Homo sapiens), sequence (P29317 whole entry): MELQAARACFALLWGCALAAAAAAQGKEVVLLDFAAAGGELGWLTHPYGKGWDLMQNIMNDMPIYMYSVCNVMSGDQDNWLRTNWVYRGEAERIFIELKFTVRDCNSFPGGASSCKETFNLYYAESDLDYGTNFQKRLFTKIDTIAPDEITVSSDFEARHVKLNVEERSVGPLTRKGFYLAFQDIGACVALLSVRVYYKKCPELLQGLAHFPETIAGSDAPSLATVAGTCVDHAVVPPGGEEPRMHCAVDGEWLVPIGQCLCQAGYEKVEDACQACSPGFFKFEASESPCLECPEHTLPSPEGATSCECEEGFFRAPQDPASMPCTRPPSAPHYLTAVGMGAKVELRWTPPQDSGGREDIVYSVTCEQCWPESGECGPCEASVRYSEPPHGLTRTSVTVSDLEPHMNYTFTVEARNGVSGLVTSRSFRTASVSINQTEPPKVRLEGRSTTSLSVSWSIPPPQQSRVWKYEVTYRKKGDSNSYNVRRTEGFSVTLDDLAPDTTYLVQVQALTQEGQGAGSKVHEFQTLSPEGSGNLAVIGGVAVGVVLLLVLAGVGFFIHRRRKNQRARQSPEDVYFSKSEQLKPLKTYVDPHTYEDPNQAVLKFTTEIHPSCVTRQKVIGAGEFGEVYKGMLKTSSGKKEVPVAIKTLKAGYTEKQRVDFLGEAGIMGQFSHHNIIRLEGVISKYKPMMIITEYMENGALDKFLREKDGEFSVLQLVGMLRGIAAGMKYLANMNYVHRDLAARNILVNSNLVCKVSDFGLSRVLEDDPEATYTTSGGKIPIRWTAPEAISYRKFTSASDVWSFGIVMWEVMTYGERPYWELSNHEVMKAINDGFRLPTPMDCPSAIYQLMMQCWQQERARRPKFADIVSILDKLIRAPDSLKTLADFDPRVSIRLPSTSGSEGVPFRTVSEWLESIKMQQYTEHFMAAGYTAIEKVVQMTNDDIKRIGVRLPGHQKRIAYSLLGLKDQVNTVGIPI

[4] = biological target: T2, Serine/threonine-protein kinase ULK3 (Homo sapiens) (UniProt Q6PHR2); test: Inhibition of human recombinant ULK3 at 15 nM in presence of ATP by radiometric assay relative to control
T2 sequence (whole entry): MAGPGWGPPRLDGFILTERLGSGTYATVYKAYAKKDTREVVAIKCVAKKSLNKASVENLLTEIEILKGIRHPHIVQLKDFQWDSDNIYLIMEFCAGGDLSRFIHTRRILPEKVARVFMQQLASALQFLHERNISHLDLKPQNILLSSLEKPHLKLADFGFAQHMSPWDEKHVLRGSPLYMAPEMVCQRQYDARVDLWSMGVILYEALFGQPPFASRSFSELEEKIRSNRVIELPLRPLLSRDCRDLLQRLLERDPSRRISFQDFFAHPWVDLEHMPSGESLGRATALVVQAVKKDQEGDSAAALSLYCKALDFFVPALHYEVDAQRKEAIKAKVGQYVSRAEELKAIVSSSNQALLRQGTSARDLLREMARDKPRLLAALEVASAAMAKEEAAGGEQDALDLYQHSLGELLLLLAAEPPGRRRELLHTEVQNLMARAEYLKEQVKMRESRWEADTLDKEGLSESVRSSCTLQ

[5] = biological target: Tyrosine-protein kinase BTK (Homo sapiens) (UniProt Q06187); test: Inhibition of human recombinant BTK at 15 nM in presence of ATP by radiometric assay relative to control
Tyrosine-protein kinase BTK (Homo sapiens), sequence (Q06187 whole entry): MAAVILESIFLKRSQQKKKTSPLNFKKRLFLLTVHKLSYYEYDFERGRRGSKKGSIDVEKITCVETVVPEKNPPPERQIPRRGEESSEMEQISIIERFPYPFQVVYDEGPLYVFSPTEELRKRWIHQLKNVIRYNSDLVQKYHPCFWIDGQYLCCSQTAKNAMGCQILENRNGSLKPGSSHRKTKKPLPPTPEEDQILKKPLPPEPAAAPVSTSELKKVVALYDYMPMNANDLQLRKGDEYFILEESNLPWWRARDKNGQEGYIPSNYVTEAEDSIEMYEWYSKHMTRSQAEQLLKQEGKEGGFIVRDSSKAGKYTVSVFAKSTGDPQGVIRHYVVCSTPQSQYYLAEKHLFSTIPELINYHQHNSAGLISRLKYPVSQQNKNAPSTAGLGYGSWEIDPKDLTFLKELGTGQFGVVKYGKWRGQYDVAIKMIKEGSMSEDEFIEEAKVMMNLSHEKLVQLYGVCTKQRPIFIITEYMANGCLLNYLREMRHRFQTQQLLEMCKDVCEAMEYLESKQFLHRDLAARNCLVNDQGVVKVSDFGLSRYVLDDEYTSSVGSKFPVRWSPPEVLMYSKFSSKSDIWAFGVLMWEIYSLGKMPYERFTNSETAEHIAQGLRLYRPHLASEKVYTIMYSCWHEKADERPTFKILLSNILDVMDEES

[6] = biological target: T3, Mitogen-activated protein kinase kinase kinase 5 (Homo sapiens) (UniProt Q99683); test: Inhibition of human recombinant MAP3K5 at 15 nM in presence of ATP by radiometric assay relative to control
T3 sequence (whole entry): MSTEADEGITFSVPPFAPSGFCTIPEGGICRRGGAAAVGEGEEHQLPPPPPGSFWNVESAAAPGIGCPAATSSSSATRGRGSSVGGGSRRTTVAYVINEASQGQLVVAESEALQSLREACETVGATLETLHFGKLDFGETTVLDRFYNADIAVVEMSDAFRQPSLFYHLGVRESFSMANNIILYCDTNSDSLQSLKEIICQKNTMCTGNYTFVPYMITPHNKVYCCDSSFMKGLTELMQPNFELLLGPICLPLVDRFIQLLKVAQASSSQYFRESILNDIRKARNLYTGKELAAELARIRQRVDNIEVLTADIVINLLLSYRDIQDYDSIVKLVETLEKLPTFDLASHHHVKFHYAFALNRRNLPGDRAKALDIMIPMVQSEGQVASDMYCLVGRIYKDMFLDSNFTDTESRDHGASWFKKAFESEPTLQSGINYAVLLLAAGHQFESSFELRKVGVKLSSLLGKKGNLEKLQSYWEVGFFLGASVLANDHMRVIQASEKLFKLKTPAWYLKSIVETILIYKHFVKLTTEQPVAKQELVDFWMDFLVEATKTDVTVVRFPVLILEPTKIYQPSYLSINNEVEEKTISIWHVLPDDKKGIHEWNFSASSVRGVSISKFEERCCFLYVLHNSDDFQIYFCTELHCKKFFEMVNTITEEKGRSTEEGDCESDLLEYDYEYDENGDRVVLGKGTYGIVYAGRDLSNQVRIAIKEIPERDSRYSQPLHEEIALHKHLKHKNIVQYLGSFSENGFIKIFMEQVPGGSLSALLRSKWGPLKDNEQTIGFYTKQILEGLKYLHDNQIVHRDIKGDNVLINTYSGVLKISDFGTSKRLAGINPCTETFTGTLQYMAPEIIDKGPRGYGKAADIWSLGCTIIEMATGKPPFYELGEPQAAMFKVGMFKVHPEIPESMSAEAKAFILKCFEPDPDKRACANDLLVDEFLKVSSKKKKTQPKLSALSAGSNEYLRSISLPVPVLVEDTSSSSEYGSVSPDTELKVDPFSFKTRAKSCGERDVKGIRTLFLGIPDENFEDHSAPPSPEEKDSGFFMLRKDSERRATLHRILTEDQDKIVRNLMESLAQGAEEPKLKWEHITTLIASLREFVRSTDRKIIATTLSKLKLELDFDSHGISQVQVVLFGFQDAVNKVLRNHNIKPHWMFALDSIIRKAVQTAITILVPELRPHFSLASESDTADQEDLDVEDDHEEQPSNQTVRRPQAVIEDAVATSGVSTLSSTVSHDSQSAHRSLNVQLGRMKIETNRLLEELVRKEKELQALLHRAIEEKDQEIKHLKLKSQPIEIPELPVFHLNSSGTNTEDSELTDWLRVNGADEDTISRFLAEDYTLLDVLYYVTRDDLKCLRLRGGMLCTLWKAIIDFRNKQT

inhibition [1]: 2% | fold change (FC) [2]: 0
SMILES: CNC(=O)c1ccccc1Oc1nc(Nc2cc(OC)c(OC)c(OC)c2)ncc1Br

inhibition [3]: 2%
SMILES: O=C(N[C@@H](C1CC1)C(F)(F)F)c1cc(-c2cnn3cc(-c4ccc(F)cc4)cnc23)cs1

inhibition [4]: 40% | inhibition [5]: 0% | inhibition [6]: 0%
SMILES: CC(C)[C@H](NC(=O)c1cc(-c2cnn3cc(-c4ccc(OCCN5CCCCC5)cc4)cnc23)cs1)C(F)(F)F
